Assay results taken from US12421207B2 (CMG Pharmaceutical Co., Ltd., priority 2022, dated 2025).

Experiments:
[1] = test system: PC9/ER cells; experiment: Cell viability assay (CellTiter-Glo 2.0), erlotinib-resistant PC9/ER cells; type: cell-based; conditions: Homo sapiens, PC-9/ER; Table 4; 72 h drug treatment, combinations of EGFR TKIs and inhibitor of Formula (I); read-out: Relative cell viability; IC50 PC9ER
Source text: (§1) To explore c-MET and AXL mechanisms of EGFR TKI resistance, resistant cells of the EGFR TKI hypersensitive EGFR exon 19 mutant NSCLC cell line, HCC827 and PC9 were generated by exposing these cells to increasing concentrations of EGFR TKI for over 3 months.
(§2) Gefitinib-resistant cells were referred to as HCC827/GR. […] Osimertinib-resistant cells were referred to as HCC827/OR.

[2] = test system: HCC827/ER cells; experiment: Cell viability assay (CellTiter-Glo 2.0), erlotinib-resistant HCC827/ER cells; type: cell-based, human; conditions: Homo sapiens, HCC827ER, Table 4, 72 h drug treatment, combinations of EGFR TKIs and inhibitor of Formula (I), read-out: Relative cell viability
Source text: as §1, §2

[3] = test system: HCC827/GR cells; experiment: Cell viability assay (CellTiter-Glo 2.0), gefitinib-resistant HCC827/GR cells; type: cell-based, human; conditions: Homo sapiens, HCC827; Table 4; 72 h drug treatment, combinations of EGFR TKIs and inhibitor of Formula (I); read-out: Relative cell viability; IC50 HCC827GR
Summary of the method: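 Gefitinib-resistant HCC827 cells, derived by over 3 months' escalating EGFR TKI exposure, seeded at 1,000 cells/well. Treated 72 h with a 10-point dose range from 1 nM to 10,000 nM. Viability read by CellTiter-Glo 2.0 luminescence.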

[4] = test system: HCC827/OR cells; experiment: Cell viability assay (CellTiter-Glo 2.0), osimertinib-resistant HCC827/OR cells; type: cell-based, human; conditions: Homo sapiens, HCC827; Table 4; 72 h drug treatment, combinations of EGFR TKIs and inhibitor of Formula (I); read-out: Relative cell viability; IC50 HCC827OR
Source text: as §1, §2

Compound	IC50 [1] [µM]	IC50 [2] [µM]	IC50 [3] [µM]	IC50 [4] [µM]
Cn1nc(C(=O)Nc2ccc(Oc3ccnc(N)c3C#CCN3CCOCC3)c(F)c2)c(=O)n(-c2ccc(F)cc2)c1=O [Example 49, N-(4-(2-amino-3-(3-morpholinoprop-1-ynyl)pyridin-4-yloxy)-3-fluorophenyl)-4-(4-fluorophenyl)-2-methyl-3,5-dioxo-2,3,4,5-tetrahydro-1,2,4-triazine-6-carboxamide]	< 1	< 10	< 1	< 10
Nc1nccc(Oc2ccc(NC(=O)c3c[nH]c(=O)n(-c4ccc(F)cc4)c3=O)cc2F)c1C#CCN1CCOCC1 [Example 51, N-(4-(2-amino-3-(3-morpholinoprop-1-ynyl)pyridin-4-yloxy)-3-fluorophenyl)-3-(4-fluorophenyl)-2,4-dioxo-1,2,3,4-tetrahydropyrimidine-5-carboxamide]	< 1	< 1	< 10	< 1
CC(C)(C#Cc1c(Oc2ccc(NC(=O)c3c[nH]c(=O)n(-c4ccc(F)cc4)c3=O)cc2F)ccnc1N)N1CCNCC1 [Example 52, N-(4-(2-amino-3-(3-methyl-3-(piperazin-1-yl)but-1-ynyl)pyridin-4-yloxy)-3-fluorophenyl)-3-(4-fluorophenyl)-2,4-dioxo-1,2,3,4-tetrahydropyrimidine-5-carboxamide]	< 10	< 10	< 10	> 10
CN1CCC(CC#Cc2c(Oc3ccc(NC(=O)c4c[nH]c(=O)n(-c5ccc(F)cc5)c4=O)cc3F)ccnc2N)CC1 [Example 54, N-(4-(2-amino-3-(3-(1-methylpiperidin-4-yl)prop-1-ynyl)pyridin-4-yloxy)-3-fluorophenyl)-3-(4-fluorophenyl)-2,4-dioxo-1,2,3,4-tetrahydropyrimidine-5-carboxamide]	< 1	< 1	< 1	< 1
CC(C)(C#Cc1c(Oc2ccc(NC(=O)c3cn(C4CCOCC4)c(=O)n(-c4ccc(F)cc4)c3=O)cc2F)ccnc1N)N1CCOCC1 [Example 55, N-(4-(2-amino-3-(3-methyl-3-morpholinobut-1-ynyl)pyridin-4-yloxy)-3-fluorophenyl)-3-(4-fluorophenyl)-2,4-dioxo-1-(tetrahydro-2H-pyran-4-yl)-1,2,3,4-tetrahydropyrimidine-5-carboxamide]	< 1	< 0.1	< 0.1	< 1

Other lines, results leading:

IC50 [1] [µM]	IC50 [2] [µM]	IC50 [3] [µM]	IC50 [4] [µM]	Compound
< 0.1	< 0.1	< 1	< 0.1	CC(C)(C#Cc1c(Oc2ccc(NC(=O)c3c[nH]c(=O)n(-c4ccc(F)cc4)c3=O)cc2F)ccnc1N)N1CCOCC1 [Example 50, N-(4-(2-amino-3-(3-methyl-3-morpholinobut-1-ynyl)pyridin-4-yloxy)-3-fluorophenyl)-3-(4-fluorophenyl)-2,4-dioxo-1,2,3,4-tetrahydropyrimidine-5-carboxamide]
< 10	< 1	< 10	< 10	Nc1nccc(Oc2ccc(NC(=O)c3c[nH]c(=O)n(-c4ccc(F)cc4)c3=O)cc2F)c1C#CCC1CCNCC1 [Example 53, N-(4-(2-amino-3-(3-(piperidin-4-yl)prop-1-ynyl)pyridin-4-yloxy)-3-fluorophenyl)-3-(4-fluorophenyl)-2,4-dioxo-1,2,3,4-tetrahydropyrimidine-5-carboxamide]
< 1	< 0.01	< 0.1	< 1	Nc1nccc(Oc2ccc(NC(=O)c3cn(C4CCOCC4)c(=O)n(-c4ccc(F)cc4)c3=O)cc2F)c1C#CCN1CCOCC1 [Example 56, N-(4-(2-amino-3-(3-morpholinoprop-1-ynyl)pyridin-4-yloxy)-3-fluorophenyl)-3-(4-fluorophenyl)-2,4-dioxo-1-(tetrahydro-2H-pyran-4-yl)-1,2,3,4-tetrahydropyrimidine-5-carboxamide]
